Among the data in PubChem BioAssay AID248 (DTP/NCI, 2004) are T/C values, retold here.

This assay has as its system L1210 leukemia ip in BDF1 mice, survival T/C. Briefly: NCI In Vivo Anticancer Drug Screen. Data for tumor model L1210 Leukemia (intraperitoneal) in B6D2F1 (BDF1) mice. The settings on record: endpoint: mean survival time, higher = longer survival. The essentials:
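Transplanted-tumor mice were given test agent; controls received vehicle only. Survival readings from the two groups were divided (treated over control).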

The mark [1] stands for this setting: dose: 100.0 mg/kg/injection, schedule: Q04DX002 (ip), vehicle: Klucel (hydroxypropylcellulose) (HPC).
The mark [2] stands for this setting: dose: 200.0 mg/kg/injection, schedule: Q04DX002 (ip), vehicle: Klucel (hydroxypropylcellulose) (HPC).
[3] abbreviates: dose: 400.0 mg/kg/injection, schedule: Q04DX002 (ip), vehicle: Klucel (hydroxypropylcellulose) (HPC).
The mark [4] stands for this setting: dose: 100.0 mg/kg/injection, schedule: Q01DX001 (ip), vehicle: other.
The mark [5] stands for this setting: dose: 200.0 mg/kg/injection, schedule: Q01DX001 (ip), vehicle: other.
The mark [6] stands for this setting: dose: 400.0 mg/kg/injection, schedule: Q01DX001 (ip), vehicle: other.
The mark [7] stands for this setting: dose: 200.0 mg/kg/injection, schedule: Q01DX001 (ip), vehicle: carboxymethylcellulose (CMC).
The mark [8] stands for this setting: dose: 100.0 mg/kg/injection, schedule: Q01DX009 (ip), vehicle: saline.
[9] abbreviates: dose: 200.0 mg/kg/injection, schedule: Q01DX009 (ip), vehicle: saline.
Setting [10] is: dose: 100.0 mg/kg/injection, schedule: Q01DX001 (ip), vehicle: Klucel (hydroxypropylcellulose) (HPC).
[11] abbreviates: dose: 200.0 mg/kg/injection, schedule: Q01DX001 (ip), vehicle: Klucel (hydroxypropylcellulose) (HPC).
[12] abbreviates: dose: 100.0 mg/kg/injection, schedule: Q01DX001 (ip), vehicle: carboxymethylcellulose (CMC).
The mark [13] stands for this setting: dose: 400.0 mg/kg/injection, schedule: Q01DX001 (ip), vehicle: carboxymethylcellulose (CMC).
The mark [14] stands for this setting: dose: 50.0 mg/kg/injection, schedule: Q01DX009 (ip), vehicle: saline.
Where [15] appears, read: dose: 100.0 mg/kg/injection, schedule: Q04DX003 (ip), vehicle: saline with Tween-80.
The mark [16] stands for this setting: dose: 200.0 mg/kg/injection, schedule: Q04DX003 (ip), vehicle: saline with Tween-80.
Where [17] appears, read: dose: 400.0 mg/kg/injection, schedule: Q04DX003 (ip), vehicle: saline with Tween-80.

“And” between values parts separate entries of the source, which are not always exact repeats. Equal values may be shown once. Toxic doses and inconclusive results are not listed.

As for `O=C1CCCCCCCCCCCCCCCO1`, the T/C by setting is: under setting [1], 90 % of control; under setting [2], 93 % of control; under setting [3], 93 % of control.

With `CC(=O)Nc1cc(Cl)ccc1C(=O)O`, the T/C under setting [4] was 109 % of control; the T/C (dose: 100.0 mg/kg/injection, schedule: Q04DX003 (ip), vehicle: other) was 96 % of control; the T/C under setting [5] was 98 % of control; the T/C (dose: 200.0 mg/kg/injection, schedule: Q04DX003 (ip), vehicle: other) is 90 % of control; the T/C under setting [6] is 101 % of control; the T/C (dose: 400.0 mg/kg/injection, schedule: Q04DX003 (ip), vehicle: other) is 96 % of control.

For `CCOC(=O)C(Cc1ccc(N(CCCl)CCCl)cc1)NC=O` (stereo unspecified), the T/C was 111 % of control (dose: 5.0 mg/kg/injection, schedule: Q01DX Z (ip), vehicle: carboxymethylcellulose (CMC)); 123 % of control (dose: 10.0 mg/kg/injection, schedule: Q01DX Z (ip), vehicle: carboxymethylcellulose (CMC)); 150 % of control (dose: 40.0 mg/kg/injection, schedule: Q01DX Z (ip), vehicle: carboxymethylcellulose (CMC)); 168 % of control (dose: 88.8 mg/kg/injection, schedule: Q01DX001 (ip), vehicle: carboxymethylcellulose (CMC)); 168 % of control (dose: 133.0 mg/kg/injection, schedule: Q01DX001 (ip), vehicle: carboxymethylcellulose (CMC)); 150 % of control and 161 % of control and 170 % of control under setting [7].

Take `CC(=O)OCc1ccc(Cl)cc1`: the T/C under setting [8] is 96 % of control and the T/C under setting [9] is 102 % of control.

Regarding `O=c1[nH]cc(CSC(=S)Nc2ccc(Cl)c(Cl)c2)c(=O)[nH]1`, the T/C runs as follows: (dose: 15.0 mg/kg/injection, schedule: Q04DX003 (ip), vehicle: saline with Tween-80) 104 % of control; (dose: 30.0 mg/kg/injection, schedule: Q04DX003 (ip), vehicle: saline with Tween-80) 101 % of control; (dose: 60.0 mg/kg/injection, schedule: Q04DX003 (ip), vehicle: saline with Tween-80) 104 % of control.

In the case of `CCCS(=O)(=O)N1CCC(C)CC1`, the T/C is 102 % of control under setting [1], 97 % of control under setting [2] and 97 % of control under setting [3].

On to `CS(=O)Cc1cccc2ccccc12` (stereo unspecified), for which the T/C by setting is: (dose: 50.0 mg/kg/injection, schedule: Q04DX003 (ip), vehicle: Klucel (hydroxypropylcellulose) (HPC)) 117 % of control; under setting [10], 98 % of control; (dose: 100.0 mg/kg/injection, schedule: Q04DX003 (ip), vehicle: Klucel (hydroxypropylcellulose) (HPC)) 104 % of control; under setting [11], 116 % of control; (dose: 200.0 mg/kg/injection, schedule: Q04DX003 (ip), vehicle: Klucel (hydroxypropylcellulose) (HPC)) 96 % of control.

Regarding `O=[N+]([O-])c1cc(N(c2ccccc2)c2ccccc2)c(Cl)cc1Cl`, the T/C was 111 % of control under setting [12], 103 % of control under setting [7] and 95 % of control under setting [13].

With `O/N=C1\c2ccccc2-c2ccc(Br)cc21`, the T/C is 97 % of control under setting [12], 117 % of control under setting [7] and 103 % of control under setting [13].

On to `O=C(N/C=C/NC(=O)c1ccccc1)c1ccccc1`, for which the T/C by setting is: under setting [10], 104 % of control; under setting [11], 111 % of control; (dose: 400.0 mg/kg/injection, schedule: Q01DX001 (ip), vehicle: Klucel (hydroxypropylcellulose) (HPC)) 104 % of control.

With `CCOC(=O)C(N)CS` (stereo unspecified), the T/C (dose: 100.0 mg/kg/injection, schedule: Q01DX001 (ip), vehicle: saline) is 106 % of control; the T/C (dose: 200.0 mg/kg/injection, schedule: Q01DX001 (ip), vehicle: saline) was 97 % of control; the T/C (dose: 400.0 mg/kg/injection, schedule: Q01DX001 (ip), vehicle: saline) is 101 % of control.

As to `CC(C)(CO)CO`, the T/C (dose: 25.0 mg/kg/injection, schedule: Q01DX009 (ip), vehicle: saline) was 97 % of control; the T/C (dose: 25.0 mg/kg/injection, schedule: Q04DX002 (ip), vehicle: saline) is 113 % of control; the T/C under setting [14] is 108 % of control; the T/C (dose: 50.0 mg/kg/injection, schedule: Q04DX002 (ip), vehicle: saline) is 102 % of control; the T/C under setting [8] is 105 % of control; the T/C (dose: 100.0 mg/kg/injection, schedule: Q04DX002 (ip), vehicle: saline) was 102 % of control and 103 % of control.

For `CCOC(=O)C1=CN=NC1=[N+]=[N-]`, the T/C is 96 % of control (dose: 10.0 mg/kg/injection, schedule: Q01DX001 (ip), vehicle: saline) and 102 % of control (dose: 20.0 mg/kg/injection, schedule: Q01DX001 (ip), vehicle: saline).

For `COC(=O)C(=[N+]=[N-])C(F)(F)F`, the T/C was 95 % of control under setting [14], 102 % of control under setting [8] and 102 % of control under setting [9].

Turning to `CCOC(OCC)C(C)(C)CNC`, the T/C is, setting by setting: (dose: 100.0 mg/kg/injection, schedule: Q01DX001 (ip), vehicle: saline sonified) 90 % of control; (dose: 200.0 mg/kg/injection, schedule: Q01DX001 (ip), vehicle: saline sonified) 101 % of control; (dose: 400.0 mg/kg/injection, schedule: Q01DX001 (ip), vehicle: saline sonified) 107 % of control.

Take `CN(CC(=O)C(C#N)c1ccccc1)c1ccccc1` (stereo unspecified): the T/C is 98 % of control (dose: 50.0 mg/kg/injection, schedule: Q01DX001 (ip), vehicle: carboxymethylcellulose (CMC)); 93 % of control under setting [12]; 91 % of control under setting [7]; 98 % of control under setting [13].

`CCCCCCCCCCCCCCCCCC[N+](C)=C1SCCS1`: the T/C by setting is: (dose: 1.56 mg/kg/injection, schedule: Q01DX009 (ip), vehicle: Klucel (hydroxypropylcellulose) (HPC)) 94 % of control; (dose: 3.13 mg/kg/injection, schedule: Q01DX009 (ip), vehicle: Klucel (hydroxypropylcellulose) (HPC)) 105 % of control; (dose: 6.25 mg/kg/injection, schedule: Q01DX009 (ip), vehicle: Klucel (hydroxypropylcellulose) (HPC)) 105 % of control.

Regarding `CS(=O)(=O)Oc1c(Cl)cc(S(=O)(=O)F)cc1Cl`, the T/C was 104 % of control (dose: 100.0 mg/kg/injection, schedule: Q01DX009 (ip), vehicle: Klucel (hydroxypropylcellulose) (HPC)) and 102 % of control (dose: 200.0 mg/kg/injection, schedule: Q01DX009 (ip), vehicle: Klucel (hydroxypropylcellulose) (HPC)).

Regarding `O=C(OCC(O)C(O)C(O)C(O)COC(=O)c1ccccc1)c1ccccc1` (stereo unspecified), the T/C by setting is: under setting [12], 98 % of control; under setting [7], 95 % of control; under setting [13], 95 % of control.

As to `O=C(NCCCl)NC1CCS(=O)(=O)C1` (stereo unspecified), the T/C under setting [4] is 98 % of control, the T/C under setting [5] was 98 % of control and the T/C under setting [6] was 98 % of control.

In the case of `Cc1ccccc1Sc1ncnc2nc[nH]c12`, the T/C is 91 % of control under setting [15], 102 % of control under setting [16] and 101 % of control under setting [17].

As to `Cc1cc([N+](=O)[O-])c2ccccc2c1N(CC(=O)O)S(=O)(=O)c1ccccc1`, the T/C runs as follows: (dose: 100.0 mg/kg/injection, schedule: Q01DX009 (ip), vehicle: saline with Tween-80) 93 % of control; under setting [15], 90 % of control; (dose: 200.0 mg/kg/injection, schedule: Q01DX009 (ip), vehicle: saline with Tween-80) 99 % of control; under setting [16], 97 % of control; (dose: 400.0 mg/kg/injection, schedule: Q01DX009 (ip), vehicle: saline with Tween-80) 104 % of control; under setting [17], 89 % of control.

As to `Cc1cccc(NC(=O)CSc2cc(Cl)c(Cl)cc2Cl)c1`, the T/C runs as follows: (dose: 100.0 mg/kg/injection, schedule: Q01DX001 (ip), vehicle: saline with Tween-80) 93 % of control; (dose: 200.0 mg/kg/injection, schedule: Q01DX001 (ip), vehicle: saline with Tween-80) 90 % of control; (dose: 400.0 mg/kg/injection, schedule: Q01DX001 (ip), vehicle: saline with Tween-80) 87 % of control.
